Assays:
Type in all cases: in vivo, human
[1] = system: adiponectin; assay: Plasma adiponectin after twelve weeks (81 days) of treatment in obese patients; settings: doses 0 (placebo), 0.6, 1.2 and 2.4 mg, FIG. 2
Protocol: (§1) Obese patients were treated in three cohorts with intravenous administration of a formulation of the compound A. The compound was intravenously administered to each patient of a cohort (except for a placebo cohort) twice weekly for 81 days. Each of patients in the three non-placebo cohorts received either 0.6 mg of compound A (cohort 1); 1.2 mg (cohort 2); or 2.4 mg (cohort 3) doses of the compound at the time of administration. The trial was conducted under the appropriate government and medical supervision.

[2] = system: adiponectin; assay: Plasma adiponectin (total, ALPCO ELISA; high molecular weight form) after 4 weeks of intravenous treatment in obese patients
[3] = system: sRAGE; assay: sRAGE study in obese patients treated twice weekly for 81 days; settings: 0.6, 1.2 or 2.4 mg twice weekly for 81 days, FIG. 1
Protocol: as §1

| Structure (SMILES) | plasma adiponectin [1] | total plasma adiponectin ([2]; after 4 weeks of intravenous treatment versus placebo, ALPCO ELISA, FIG. 3) | high molecular weight form of adiponectin ([2]; after 4 weeks of intravenous treatment with 1.9 mg versus placebo, FIG. 4) | levels of sRAGE in patients' serum [3] |
| --- | --- | --- | --- | --- |
| CO[C@@H]1[C@H](OC(=O)C=Cc2ccc(OCCN(C)C)cc2)CC[C@]2(CO2)[C@H]1[C@@]1(C)O[C@@H]1CC=C(C)C [Compound A, O-(4-dimethylaminoethoxycinnamoyl)fumagillol] | dose proportional increases | increases in total plasma adiponectin | increases in the high molecular weight form of adiponectin | – |
| CO[C@@H]1[C@H](OC(=O)/C=C/c2ccc(OCCN(C)C)cc2)CC[C@]2(CO2)[C@H]1[C@@]1(C)O[C@@H]1CC=C(C)C.O=C(O)C(=O)O [6-O-(4-dimethylaminoethoxy)cinnamoyl fumagillol oxalate] | – | – | – | increase |
